Data on 20 compounds can be found in patent US11261201B2 (priority 2018, dated 2022).

Experiment [1] relates to E. coli. Nature of the experiment: Gram negative MIC protocol (OD600, LB, 24 h). To be noted: Escherichia coli.
Experimental: (§1) Overnight bacterial cultures were grown in LB with no added antibiotics at 37° C. with shaking. A 1:1000 dilution of these cultures into LB was exposed to concentration gradients of compounds in 96-well plates (100 μL per well assay volume). Resulting plates were incubated at 37° C. for 24 h without shaking, and OD600 was measured at the end of the incubation. MICs were determined as the lowest concentrations at which OD600 remained at baseline.
Experiment [2] relates to A. baumannii. Nature of the experiment: Gram negative MIC protocol (OD600, LB, 24 h). The conditions noted are these: Acinetobacter baumannii.
Experimental: as §1
In experiment [3] the test system is H37RvMA. Nature of the experiment: Tuberculosis Alamar Blue/Resazurin assay (MIC). The conditions noted are these: Mycobacterium tuberculosis, H37RV, read-out: WT H37Rv MTB Activity. The experiment is classed as cell-based.
[4] abbreviates: read-out: MIC E. coli delta-TolC LB Media, E. coli delta-TolC, LB media, OD600.
Where [5] appears, read: read-out: MIC WT E. coli LB Media, WT E. coli, LB media, OD600.
[6] abbreviates: read-out: MIC A. baumannii LB Media, A. baumannii, LB media, 24 h, OD600.
The mark [7] stands for this setting: read-out: MIC E. coli delta-TolC LB Media, E. coli delta-TolC strain, LB media, 24 h, OD600.
Where [8] appears, read: read-out: MIC WT E. coli LB Media, wild-type E. coli, LB media, 24 h, OD600.

In brackets after ≈: the same amount, converted by molar mass. Counter-ions that a name gives are not always drawn. Like-named read-outs stand apart in the source and are kept apart here.

`c1ccc(CNCCC2CCCCC2)cc1` [B132]: the MIC in experiment [1] (setting [4]) is 85 µM (≈ 18.5 µg/mL); in experiment [1] (setting [5]), 124 µM (≈ 27 µg/mL); in experiment [2] (setting [6]), 150 µM (≈ 32.6 µg/mL); in experiment [3] (WT H37Rv MTB), above 150 µM.

Take `c1ccc(CNC2CCc3cccc4cccc2c34)cc1` (centres unmarked) [B195]: the MIC in experiment [1] (setting [4]) is 300 µM (≈ 82 µg/mL); in experiment [1] (setting [5]) it was above 300 µM; in experiment [2] (setting [6]), above 300 µM; in experiment [3] (WT H37Rv MTB), above 150 µM.

Regarding `CC(CC1CCCCC1)NCc1ccccc1CS(=O)(=O)NCC(=O)NCC(=O)O` (centres unmarked) [B452, ((2-(((1-cyclohexylpropan-2-yl)amino)methyl)benzyl)sulfonyl)glycylglycine], the MIC in experiment [1] (setting [4]), in experiment [1] (setting [5]), in experiment [2] (setting [6]) and in experiment [3] (WT H37Rv MTB) was above 150 µM in each case.

In the case of `CC1CCC(NCc2ccccc2)CC1` (centres unmarked) [B142], the MIC in experiment [1] (setting [4]), in experiment [1] (setting [5]), in experiment [2] (setting [6]) and in experiment [3] (WT H37Rv MTB) was above 150 µM each time.

With `C1=CC(CCNCc2ccccc2)CCC1` (centres unmarked) [B160], the MIC in experiment [1] (setting [4]), in experiment [1] (setting [5]), in experiment [2] (read-out: MIC A. baumannii LB Media) and in experiment [3] was above 150 µM in each case.

With `CC(CC1CCCCC1)NCc1ccccc1OCCCN1CCOC1=O` (centres unmarked) [B264], the MIC in experiment [1] (setting [7]) was 3 µM (≈ 1.12 µg/mL); in experiment [1] (setting [8]), 150 µM (≈ 56.2 µg/mL); in experiment [2] (setting [6]), 150 µM (≈ 56.2 µg/mL); in experiment [3] (WT H37Rv MTB), above 150 µM.

As to `CN(C)c1ccccc1CNCCC1CCCCC1` [B237, 2-((2-cyclohexylethylamino)methyl)-N,N-dimethylaniline hydrochloride], the MIC was 170 µM in experiment [1] (setting [7]), above 300 µM in experiment [1] (setting [8]), above 300 µM in experiment [2] (setting [6]) and above 150 µM in experiment [3] (WT H37Rv MTB).

Consider `COCCCOc1ccccc1CNC(C)CC1CCCCC1` (centres unmarked) [B312], for which the MIC in experiment [1] (setting [7]) was 7 µM (≈ 2.24 µg/mL); in experiment [1] (setting [8]) it was above 150 µM; in experiment [2] (setting [6]), above 150 µM; in experiment [3] (WT H37Rv MTB) it was above 150 µM.

With `OC(CNCc1ccccc1)c1cccc2ccccc12` (centres unmarked) [B193], the MIC in experiment [1] (setting [4]) is 300 µM (≈ 83.2 µg/mL); in experiment [1] (setting [5]), above 300 µM; in experiment [2] (setting [6]), 300 µM (≈ 83.2 µg/mL); in experiment [3] (WT H37Rv MTB) it was 150 µM (≈ 41.6 µg/mL).

As to `CC(CC1CCCCC1)NCc1ccccc1OC1CC2CCC1(C)C2(C)C` (centres unmarked) [B326], the MIC in experiment [1] (setting [7]) is 12 µM (≈ 4.6 µg/mL); in experiment [1] (setting [8]), above 150 µM; in experiment [2] (setting [6]), above 150 µM; in experiment [3] (WT H37Rv MTB) it was 55 µM (≈ 21.1 µg/mL).

As for `CC(CC1CCCCC1)NCc1ccccc1OCc1cccnc1` (centres unmarked) [B296], the MIC is 7 µM (≈ 2.37 µg/mL) in experiment [1] (setting [7]), 91 µM (≈ 30.8 µg/mL) in experiment [1] (setting [8]), above 150 µM in experiment [2] (setting [6]) and above 150 µM in experiment [3] (WT H37Rv MTB).

For the compound `CC(CC1CCCCC1)NCc1ccccc1OCC1CC1` (centres unmarked) [B287], the MIC is 3 µM (≈ 0.904 µg/mL) in experiment [1] (setting [7]), 150 µM (≈ 45.2 µg/mL) in experiment [1] (setting [8]), 91 µM (≈ 27.4 µg/mL) in experiment [2] (setting [6]) and 150 µM (≈ 45.2 µg/mL) in experiment [3] (WT H37Rv MTB).

In the case of `Cc1nc(COc2ccccc2CNC(C)CC2CCCCC2)oc1C` (centres unmarked) [B246], the MIC in experiment [1] (setting [7]) is 12 µM (≈ 4.28 µg/mL); in experiment [1] (setting [8]) it was above 150 µM; in experiment [2] (setting [6]), above 150 µM; in experiment [3] (WT H37Rv MTB) it was 91 µM (≈ 32.4 µg/mL).

`CC(/C=C/C1CCCCC1)NCc1ccccc1` (centres unmarked) [B219, (E)-N-benzyl-4-cyclohexylbut-3-en-2-amine]: the MIC in experiment [1] (setting [7]) is above 300 µM; in experiment [1] (setting [8]), above 300 µM; in experiment [2] (setting [6]) it was above 300 µM; in experiment [3] (WT H37Rv MTB), above 150 µM.

On to `OC[C@H](Cc1ccccc1)NCc1ccccc1` [B174], for which the MIC in experiment [1] (setting [4]) is above 300 µM; in experiment [1] (setting [5]), above 300 µM; in experiment [2] (setting [6]), above 300 µM; in experiment [3] (WT H37Rv MTB), above 150 µM.

For the compound `CC(CC1CCCCC1)NCc1ccccc1CS(N)(=O)=O` (centres unmarked) [B414, (2-(((1-cyclohexylpropan-2-yl)amino)methyl)phenyl)methanesulfonamide], the MIC in experiment [1] (setting [4]) was 4 µM (≈ 1.3 µg/mL); in experiment [1] (setting [5]), 20 µM (≈ 6.49 µg/mL); in experiment [2] (setting [6]), 150 µM (≈ 48.7 µg/mL); in experiment [3] (WT H37Rv MTB), above 150 µM.

Regarding `Cc1cc(COc2ccccc2CNC(C)CC2CCCCC2)on1` (centres unmarked) [B241], the MIC is 4 µM (≈ 1.37 µg/mL) in experiment [1] (setting [7]), 150 µM (≈ 51.4 µg/mL) in experiment [1] (setting [8]), above 150 µM in experiment [2] (setting [6]) and above 150 µM in experiment [3] (WT H37Rv MTB).

In the case of `C1=C(CCNCCc2ccccc2)CCCC1` [B151], the MIC in experiment [1] (setting [4]), in experiment [1] (setting [5]), in experiment [2] (setting [6]) and in experiment [3] was above 150 µM each time.

For the compound `C1=C(CNCc2ccccc2)CCCC1` [B63], the MIC in experiment [1] (setting [4]), in experiment [1] (setting [5]), in experiment [2] (setting [6]) and in experiment [3] (WT H37Rv MTB) was above 150 µM each time.

Turning to `OC[C@@H](Cc1ccccc1)NCc1ccccc1` [B173], the MIC in experiment [1] (setting [4]) is above 300 µM; in experiment [1] (setting [5]), above 300 µM; in experiment [2] (setting [6]), above 300 µM; in experiment [3] (WT H37Rv MTB), above 150 µM.
